These results are taken from EP0949270A1, “Synthetic peptides containing citrulline recognized by rheumatoid arthritis sera as tools for diagnosis and treatment” (INNOGENETICS N.V., priority 1998, dated 1999).

For test [1], the system named is antifilaggrin antibodies in human sera. Description: Line Immuno Assay (LIA): reactivity of streptavidin-complexed synthetic peptides with human sera. The format is binding. The following applies: for LIA signals: 26 human RA sera (Fig. 3), peptides applied at 400 µg/ml, citrulline-containing peptides versus non-modified counterparts; for Reactivity in the LIA system: 75 sera from patients fulfilling the ARA criteria for RA, 13 synthetic peptides tested; for Immunoreaction towards peptide, comparison between peptides: in all serum groups; for Reactivity of sera on synthetic peptides: sera IG35038/ 35041. The text has this: Human sera were obtained from the Department of Rheumatology of the University Hospital in Ghent (Belgium). In total, 265 sera were included, of which 75 fulfilled the ARA criteria for RA (Arnett et al., Arthritis Rheum.,31: 315-324, 1987), 155 sera scored positive in the APF fluorescence test (De Keyser et al., in press), 98 reacted with natural filaggrin on Western blot, 80 were APF negative and 16 were derived from healthy controls.
Streptavidin-complexed peptides were applied directly on a nylon membrane with a plastic backing. Blocked strips were incubated overnight with human sera diluted 1/100 in 1 ml PBS, 0.5% caseine, 0.1% Triton X705, 10 mM MgCl2.6H2O. After washing with PBS, 0.05% Tween20, goat anti-human IgG-AP conjugated (Promega) diluted in PBS, 0.1% caseine, 0.2% Triton X705 was added for 1h30. Strips were developed in 100 mM NaCl, 100 mM Tris-HCl, pH 9.8, 50 mM MgCl2.6H2O substrate buffer containing the chromogenic substrate NBT/ BCIP. Reaction was stopped after 30 min by addition of 0.2 N H2SO4.

The test system of test [2] is anti-filaggrin binding. Description: Inhibition ELISA on plates coated with human natural filaggrin, sera preincubated with competitor. The following applies: peptide as competitor at 100 µg/ml; 4 APF positive sera. On the procedure:
Electro-eluted human natural filaggrin was coated in Maxisorp polystyrene plates at a concentration of 1 or 4 µg/ml in 50 mM carbonate buffer, pH 9.6 overnight at 4°C. Sera were diluted 1/50 in PBS, and preincubated with either the appropriate peptides at 100 µg/ml, with isolated natural filaggrin at 1 or 10 µg/ml (positive control) or with PBS (negative control) for 2 hours. The plates were blocked 1 hour with PBS, 0.1% caseïne at 37°C and subsequently incubated with the sera. During 2 hours at 37°C. Plates were washed 5 times with PBS, 0.05% Tween 20 and incubated with anti-human IgG-HRP in PBS, 0.1 % caseïne, 0.1 mM K3Fe(CN)6. Colour development was performed using tetramethylbenzidine diluted 1/100 into 0.1 M Na2HPO4, 0.1 M citric acid, 0.006% H2O2, pH 4.3. Reaction was stopped by addition of 2N H2SO4 and OD values were measured at 450 nm using a Bio-tek ELISA reader. The percentage of inhibition was caculated as folows: [formula]
(In general: In an ELISA, binding on a coated surface is turned into a signal by an enzyme label.)

[3] abbreviates: serum group APF neg., number of sera 80.
[4] abbreviates: serum group APF pos., number of sera 155.
[5] abbreviates: serum group Fg blot pos., number of sera 98.
The mark [6] stands for this setting: serum group Healthy, number of sera 16.
Setting [7] is: serum group RA sera, number of sera 75.

Ends that are not written are not given here.

For “HSTSQEGQDTIHGHRGS [IGP1158] (also: Arg may be citrulline in one of each IGP pair, not given here)”, in test [1], the LIA signals result was “positive”. The “Reactivity in the LIA system” value in test [1] was “Reactivity was noted”. For the same sequence, the “Immunoreaction towards peptide, comparison between peptides” value (shortened to “Immunoreaction towards peptide”) in test [1] is on record as “best reactive”. Further, in test [1], the “Reactivity of sera on synthetic peptides” value is on record as “negative”. Also, the “Immunoreactivity of human sera with synthetic peptide: number of reactive sera” value (from here on “Immunoreactivity … number of reactive sera”) in test [1] (setting [3]) is listed as 5/79; in test [1] (setting [4]), 42; in test [1] (setting [5]), 41; in test [1] (setting [6]), 1; in test [1] (setting [7]), 24. The “Immunoreactivity of human sera with synthetic peptide: percentage of reactive sera” value (“Immunoreactivity … percentage of reactive sera” for short) in test [1] (setting [3]) amounted to 6.3%; in test [1] (setting [4]) it was 27.1%; in test [1] (setting [5]), 43.6%; in test [1] (setting [6]) it was 6.3%; in test [1] (setting [7]), 32%. The “number of sera significantly inhibited” value in test [2] is 1.

As to “HSGIGHGQASSAVRDSGHRGYS [IGP1156] (not fully specified; also: Arg may be citrulline in one of each IGP pair, not given here)”, the LIA signals entry in test [1] is “positive”. The “Reactivity in the LIA system” value in test [1] is reported as “Reactivity was noted”. The “Immunoreaction towards peptide” value in test [1] is “best reactive”. The “Reactivity of sera on synthetic peptides” value in test [1] is reported as “negative”. Also, the “Immunoreactivity … number of reactive sera” value came to 4 in test [1] (setting [3]); 50 in test [1] (setting [4]); 46 in test [1] (setting [5]); 2 in test [1] (setting [6]); 25 in test [1] (setting [7]). Further, the “Immunoreactivity … percentage of reactive sera” value in test [1] (setting [3]) stood at 5.5%; in test [1] (setting [4]), 32.2%; in test [1] (setting [5]), 48.9%; in test [1] (setting [6]), 12.5%; in test [1] (setting [7]), 33.3%.

For “HSTSQEGQDTIHGHRGS [IGP1182] (also: Arg may be citrulline in one of each IGP pair, not given here) [reference compound]”, the LIA signals result in test [1] is reported as “disappeared completely”.

Regarding “HSASQDGQDTIRGHPGSS [IGP1155] (also: Arg may be citrulline in one of each IGP pair, not given here)”, the LIA signals entry in test [1] was “positive”. The “Reactivity in the LIA system” value in test [1] is “Reactivity was noted”. For the same sequence, the “Reactivity of sera on synthetic peptides” value in test [1] is reported as “negative”. Also, the “Immunoreactivity … number of reactive sera” value in test [1] (setting [3]) is recorded as 4; in test [1] (setting [4]) it was 35; in test [1] (setting [5]), 35; in test [1] (setting [6]), 1; in test [1] (setting [7]) it was 17. Besides, the “Immunoreactivity … percentage of reactive sera” value in test [1] (setting [3]) was found to be 5.5%; in test [1] (setting [4]), 22.6%; in test [1] (setting [5]), 37.2%; in test [1] (setting [6]), 6.3%; in test [1] (setting [7]), 22.7%. In addition, the “number of sera significantly inhibited” value in test [2] is recorded as 2 out of 4.

For “HSASQDGQDTIRGHPGSS [IGP1179] (also: Arg may be citrulline in one of each IGP pair, not given here) [reference compound]”, in test [1], the LIA signals result was “disappeared completely”.

As for “DSGHRGYSGSQASDNEGH [IGP1181] (also: Arg may be citrulline in one of each IGP pair, not given here) [reference compound]”, the LIA signals result in test [1] is “disappeared completely”.

“HSGIGHGQASSAVRDSGHRGYS [IGP1180] (also: Arg may be citrulline in one of each IGP pair, not given here) [reference compound]”: the LIA signals result in test [1] is on record as “disappeared completely”.

On to GGQGSRHQQAR [IGP1249], for which the “Reactivity in the LIA system” value in test [1] is “Reactivity was noted”. The “Immunoreactivity … number of reactive sera” value in test [1] (setting [3]) is 1/79; in test [1] (setting [4]), 23/150; in test [1] (setting [5]), 17/94; in test [1] (setting [6]), 1; in test [1] (setting [7]), 9/73. Also, the “Immunoreactivity … percentage of reactive sera” value in test [1] (setting [3]) turned out to be 1.3%; in test [1] (setting [4]), 15.3%; in test [1] (setting [5]), 18.1%; in test [1] (setting [6]) it was 6.3%; in test [1] (setting [7]) it was 12.3%.

For the sequence “DSGHRGYSGSQASDNEGH [IGP1157] (also: Arg may be citrulline in one of each IGP pair, not given here)”, the LIA signals result in test [1] is listed as “positive”. Moreover, the “Reactivity in the LIA system” value in test [1] is reported as “Reactivity was noted”. Besides, in test [1], the “Immunoreaction towards peptide” value is “very faint”. In addition, the “Reactivity of sera on synthetic peptides” value in test [1] is “negative”. The “Immunoreactivity … number of reactive sera” value in test [1] (setting [3]) is recorded as 2/61; in test [1] (setting [4]), 4/128; in test [1] (setting [5]), 4/94; in test [1] (setting [6]) it was 0/10; in test [1] (setting [7]), 3/72. In addition, the “Immunoreactivity … percentage of reactive sera” value in test [1] (setting [3]) was 3.3%; in test [1] (setting [4]), 3.1%; in test [1] (setting [5]), 4.2%; in test [1] (setting [6]) it was 0%; in test [1] (setting [7]), 4.2%.
